Experimental findings from US11884676B2, “Substituted pyrimido[1,2-b]pyridazines as positive allosteric modulators of the muscarinic acetylcholine receptor M4” (Vanderbilt University, priority 2020, dated 2024) are described below.

By Emax is commonly meant the size of the effect at its maximum, as opposed to the concentration needed. Broadly, the EC50 is the midpoint of the concentration-response curve.

The experiment deals with T1, Human M4 (Homo sapiens, UniProt P08173).
T1 construct: expressed in transfected cells
T1 sequence (P08173 1-479): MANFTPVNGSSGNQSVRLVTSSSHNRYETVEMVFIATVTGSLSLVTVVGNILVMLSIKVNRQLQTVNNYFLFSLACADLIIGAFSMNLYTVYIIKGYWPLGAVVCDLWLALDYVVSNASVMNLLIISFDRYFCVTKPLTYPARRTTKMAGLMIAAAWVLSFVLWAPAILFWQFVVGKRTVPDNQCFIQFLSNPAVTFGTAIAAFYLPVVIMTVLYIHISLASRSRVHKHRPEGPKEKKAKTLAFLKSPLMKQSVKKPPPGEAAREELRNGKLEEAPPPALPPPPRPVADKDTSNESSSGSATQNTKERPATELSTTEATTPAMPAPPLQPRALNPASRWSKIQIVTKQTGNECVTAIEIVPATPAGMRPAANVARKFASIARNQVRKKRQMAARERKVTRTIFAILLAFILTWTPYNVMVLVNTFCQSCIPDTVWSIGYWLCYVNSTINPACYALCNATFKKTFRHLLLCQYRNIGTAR
In words: mAChR M4 cell-based functional assay (calcium flux, PAM mode). The following applies: hM4-Gqi5 CHO-K1 cells; for Emax at 30 µM: CHO-K1, % ACh maximum at 30 μM; for EC50: concentration-dependent increase in the EC20 acetylcholine response. Here is the method:
Human and rat M4 cDNAs, along with the chimeric G protein Gqi5, were transfected into Chinese hamster ovary (CHO-K1) cells purchased from the American Type Culture Collection using Lipofectamine2000. hM4-Gqi5 cells were grown in Ham's F-12 medium containing 10% heat-inactivated fetal bovine serum (FBS), 20 mM HEPES, 50 μg/mL G418 sulfate, and 500 μg/mL Hygromycin B. rM4-Gqi5 cells were grown in DMEM containing 10% heat-inactivated FBS, 20 mM HEPES, 400 μg/mL G418 sulfate, and 500 μg/mL Hygromycin B.
For high throughput measurement of agonist-evoked increases in intracellular calcium, CHO-K1 cells stably expressing muscarinic receptors were plated in growth medium lacking G418 and hygromycin at 15,000 cells/20 μL/well in Greiner 384-well black-walled, tissue culture (TC)-treated, clear-bottom plates (VWR). Cells were incubated overnight at 37° C. and 5% CO2. The next day, cells were washed using an ELX 405 (BioTek) with assay buffer; the final volume was then aspirated to 20 μL. Next, 20 μL of a 2.3 μM stock of Fluo-4/acetoxymethyl ester (Invitrogen, Carlsbad, CA), prepared as a 2.3 mM stock in DMSO and mixed in a 1:1 ratio with 10% (w/v) Pluronic F-127 and diluted in assay buffer, was added to the wells and the cell plates were incubated for 50 min at 37° C. and 5% CO2. Dye was removed by washing with the ELX 405 and the final volume was aspirated to 20 μL. Compound master plates were formatted in an 11 point concentration-response curve (CRC) format (1:3 dilutions) in 100% DMSO with a starting concentration of 10 mM using a BRAVO liquid handler (Agilent). Test compound CRCs were then transferred to daughter plates (240 nL) using the Echo acoustic plate reformatter (Labcyte, Sunnyvale, CA) and then diluted into assay buffer (40 μL) to a 2× stock using a Thermo Fisher Combi (Thermo Fisher Scientific, Waltham, MA).
Calcium flux was measured using the Functional Drug Screening System (FDSS) 6000 or 7000 (Hamamatsu Corporation, Tokyo, Japan) as an increase in the fluorescent static ratio. Compounds were applied to cells (20 μL, 2×) using the automated system of the FDSS at 2-4 seconds into the protocol and the data were collected at 1 Hz. At 144 seconds, 10 μL of an EC20 concentration of the muscarinic receptor agonist acetylcholine was added (5×), followed by the addition of 12 μL of an EC80 concentration of acetylcholine at the 230 second time point (5×). Agonist activity was analyzed as a concentration-dependent increase in calcium mobilization upon compound addition. Positive allosteric modulator activity was analyzed as a concentration-dependent increase in the EC20 acetylcholine response. Antagonist activity was analyzed as a concentration-dependent decrease in the EC80 acetylcholine response. Concentration-response curves were generated using a four-parameter logistical equation in XLFit curve fitting software (IDBS, Bridgewater, NJ) for Excel (Microsoft, Redmond, WA) or Prism (GraphPad Software, Inc., San Diego, CA).
Compounds were synthesized as described above. Activity (EC50 and Emax) was determined in the mAChR M4 cell-based functional assay as described above and the data are shown in Table 2. The compound number corresponds to the compound numbers used in Examples 1 to 11 and Tables 1.

The structures appear in SMILES notation.

With `COCc1cc(=O)n2nc(N3CCC(Oc4ccc5c(c4)OCCO5)CC3)c(C)c(C)c2n1` [Compound 13, 7-(4-((2,3-Dihydrobenzo[b][1,4]dioxin-6-yl)oxy)piperidin-1-yl)-2-(methoxymethyl)-8,9-dimethyl-4H-pyrimido[1,2-b]pyridazin-4-one], the maximum response (Emax) at 30 µM was 95% and the EC50 was found to be 22 nM.

`[2H]C1([2H])Oc2ccc(OC3CCN(c4nn5c(=O)cc(COC)nc5cc4C)CC3)cc2OC1([2H])[2H]` [Compound 14, 7-(4-((2,3-Dihydrobenzo[b][1,4]dioxin-6-yl-2,2,3,3-d4)oxy)piperidin-1-yl)-2-(methoxymethyl)-8-methyl-4H-pyrimido[1,2-b]pyridazin-4-one]: the Emax at 30 µM is 101% and the EC50 was 22 nM.

For `[2H]C1([2H])Oc2ccc(OC3CCN(c4nn5c(=O)c(F)c(C)nc5cc4C)CC3)cc2OC1([2H])[2H]` [Compound 15, 7-(4-((2,3-Dihydrobenzo[b][1,4]dioxin-6-yl-2,2,3,3-d4)oxy)piperidin-1-yl)-3-fluoro-2,8-dimethyl-4H-pyrimido[1,2-b]pyridazin-4-one], the Emax at 30 µM came out at 80% and the EC50 is 20 nM.

With `[2H]C1([2H])Oc2ccc(OC3CCN(c4nn5c(=O)c(F)c(C)nc5c(C)c4C)CC3)cc2OC1([2H])[2H]` [Compound 16, 7-(4-((2,3-Dihydrobenzo[b][1,4]dioxin-6-yl-2,2,3,3-d4)oxy)piperidin-1-yl)-3-fluoro-2,8,9-trimethyl-4H-pyrimido[1,2-b]pyridazin-4-one], the Emax at 30 µM is 117% and the concentration giving a half-maximal response (EC50) worked out at 92 nM.

As to `[2H]C1([2H])Oc2ccc(OC3CCN(c4nn5c(=O)c(Cl)c(C)nc5cc4C)CC3)cc2OC1([2H])[2H]` [Compound 17, 3-Chloro-7-(4-((2,3-dihydrobenzo[b][1,4]dioxin-6-yl-2,2,3,3-d4)oxy)piperidin-1-yl)-2,8-dimethyl-4H-pyrimido[1,2-b]pyridazin-4-one], the Emax at 30 µM was 91% and the EC50 was 12 nM.

In the case of `[2H]C1([2H])Oc2ccc(OC3CCN(c4nn5c(=O)ccnc5c(C)c4COC)CC3)cc2OC1([2H])[2H]` [Compound 18, 7-(4-((2,3-Dihydrobenzo[b][1,4]dioxin-6-yl-2,2,3,3-d4)oxy)piperidin-1-yl)-8-(methoxymethyl)-9-methyl-4H-pyrimido[1,2-b]pyridazin-4-one], the Emax at 30 µM was 90% and the EC50 stood at 162 nM.

In the case of `[2H]C1([2H])Oc2ccc(OC3CCN(c4nn5c(=O)ccnc5c(COC)c4C)CC3)cc2OC1([2H])[2H]` [Compound 19, 7-(4-((2,3-Dihydrobenzo[b][1,4]dioxin-6-yl-2,2,3,3-d4)oxy)piperidin-1-yl)-9-(methoxymethyl)-8-methyl-4H-pyrimido[1,2-b]pyridazin-4-one], the Emax at 30 µM is 75% and the EC50 came out at 460 nM.

`Cc1c(N2CCC(Oc3ccc4c(c3)OCCO4)CC2)nn2c(=O)ccnc2c1C1CC1` [Compound 20, 9-Cyclopropyl-7-(4-((2,3-dihydrobenzo[b][1,4]dioxin-6-yl-2,2,3,3-d4)oxy)piperidin-1-yl)-8-methyl-4H-pyrimido[1,2-b]pyridazin-4-one]: the Emax at 30 µM stood at 81% and the EC50 is 172 nM.

As to `[2H]C1([2H])Oc2ccc(OC3CCN(c4nn5c(=O)ccnc5c(C)c4C4CC4)CC3)cc2OC1([2H])[2H]` [Compound 21, 8-cyclopropyl-7-(4-((2,3-dihydrobenzo[b][1,4]dioxin-6-yl-2,2,3,3-d4)oxy)piperidin-1-yl)-9-methyl-4H-pyrimido[1,2-b]pyridazin-4-one], the EC50 was 2070 nM. Besides, the “Human M4 Emax (%)*” value (% ACh maximum at 30 μM) turned out to be 82%.

As for `[2H]C1([2H])Oc2ccc(OC3CCN(c4cc(C)c5nccc(=O)n5n4)CC3)cc2OC1([2H])[2H]` [Compound 22, 7-(4-((2,3-dihydrobenzo[b][1,4]dioxin-6-yl-2,2,3,3-d4)oxy)piperidin-1-yl)-9-methyl-4H-pyrimido[1,2-b]pyridazin-4-one], the Emax at 30 µM worked out at 36% and the half-maximal effective concentration (EC50) stood at 1800 nM.

Consider `[2H]C1([2H])Oc2ccc(OC3CCN(c4nn5c(=O)c(Cl)cnc5cc4C)CC3)cc2OC1([2H])[2H]` [Compound 23, 3-chloro-7-(4-((2,3-dihydrobenzo[b][1,4]dioxin-6-yl-2,2,3,3-d4)oxy)piperidin-1-yl)-8-methyl-4H-pyrimido[1,2-b]pyridazin-4-one], for which the Emax at 30 µM stood at 91% and the EC50 turned out to be 44 nM.

Take `Cc1ccc(OC2CCN(c3nn4c(=O)ccnc4cc3C)CC2)cn1` [Compound 24, 8-methyl-7-(4-((6-methylpyridin-3-yl)oxy)piperidin-1-yl)-4H-pyrimido[1,2-b]pyridazin-4-one]: the Emax at 30 µM turned out to be 73% and the EC50 was determined as 782 nM.

On to `Cc1cc2nccc(=O)n2nc1N1CCC(Oc2ccc(F)cc2)CC1` [Compound 25, 7-(4-(4-fluorophenoxy)piperidin-1-yl)-8-methyl-4H-pyrimido[1,2-b]pyridazin-4-one], for which the Emax at 30 µM turned out to be 90% and the half-maximal effective concentration (EC50) was 296 nM.

For `Cc1cc2nccc(=O)n2nc1N1CCC(Oc2ccc3c(c2)OCCO3)CC1` [Compound 26, 7-(4-((2,3-dihydrobenzo[b][1,4]dioxin-6-yl)oxy)piperidin-1-yl)-8-methyl-4H-pyrimido[1,2-b]pyridazin-4-one], the maximum response (Emax) at 30 µM amounted to 84% and the EC50 is 66 nM.

Take `[2H]C1([2H])Oc2cc(OC3CCN(c4nn5c(=O)c(Cl)cnc5cc4C)CC3)cc(C)c2OC1([2H])[2H]` [Compound 27, 3-chloro-8-methyl-7-(4-((8-methyl-2,3-dihydrobenzo[b][1,4]dioxin-6-yl-2,2,3,3-d4)oxy)piperidin-1-yl)-4H-pyrimido[1,2-b]pyridazin-4-one]: the Emax at 30 µM came to 79% and the EC50 was 108 nM.

Turning to `[2H]C1([2H])Oc2cc(OC3CCN(c4nn5c(=O)ccnc5cc4C)CC3)cc(C)c2OC1([2H])[2H]` [Compound 28, 8-methyl-7-(4-((8-methyl-2,3-dihydrobenzo[b][1,4]dioxin-6-yl-2,2,3,3-d4)oxy)piperidin-1-yl)-4H-pyrimido[1,2-b]pyridazin-4-one], the maximal response (Emax) at 30 µM is 93% and the EC50 came out at 288 nM.

`[2H]C1([2H])Oc2ccc(OC3CCN(c4nn5c(=O)c(C)cnc5cc4C)CC3)cc2OC1([2H])[2H]` [Compound 29, 7-(4-((2,3-dihydrobenzo[b][1,4]dioxin-6-yl-2,2,3,3-d4)oxy)piperidin-1-yl)-3,8-dimethyl-4H-pyrimido[1,2-b]pyridazin-4-one]: the Emax at 30 µM stood at 80% and the 50% effective concentration (EC50) was 43 nM.

Regarding `[2H]C1([2H])Oc2ccc(OC3CCN(c4nn5c(=O)c(C6CC6)cnc5cc4C)CC3)cc2OC1([2H])[2H]` [Compound 30, 3-cyclopropyl-7-(4-((2,3-dihydrobenzo[b][1,4]dioxin-6-yl-2,2,3,3-d4)oxy)piperidin-1-yl)-8-methyl-4H-pyrimido[1,2-b]pyridazin-4-one], the Emax at 30 µM came to 80% and the EC50 turned out to be 73 nM.
